Columns and labels:
[1] = xn = mol fraction of the nth substance listed; conditions: 101 kPa, Liquid; for speed of sound: 298.15 K, Ecolab MPFU speed of sound meter; for mass density: Vibrating tube method
[2] = molar heat capacity at constant pressure; xn = mol fraction of the nth substance listed; conditions: 298.15 K, 101 kPa, Liquid, Flow calorimetry

COCCO [2-methoxyethan-1-ol] + CC#N
Conditions	molar heat capacity at constant pressure, [2] [J/K/mol]	speed of sound, [1] [m/s]
x1 = 0.0504	97.12	–
x1 = 0.09833	–	1281.3
x1 = 0.1006	101.84	–
x1 = 0.1504	106.53	–
x1 = 0.1641	107.81	–
x1 = 0.1936	–	1285.5
x1 = 0.1955	110.77	–
x1 = 0.2	111.19	–
x1 = 0.2999	–	1292.4
x1 = 0.3003	120.53	–
x1 = 0.3989	–	1300.3
x1 = 0.4043	129.87	–
x1 = 0.45	133.82	–
x1 = 0.5007	138.04	–
x1 = 0.5042	–	1309.5
x1 = 0.6021	146.04	–
x1 = 0.605	–	1318.2
x1 = 0.6287	148.03	–
x1 = 0.6497	149.58	–
x1 = 0.7347	–	1328.4
x1 = 0.7453	156.4	–
x1 = 0.7493	156.67	–
x1 = 0.8295	–	1334.3
x1 = 0.9064	167.3	–
x1 = 0.9177	–	1338.1
x1 = 0.9498	170.12	–
x1 = 1	173.25	1339.7

mass density [kg/m3], [1]
Conditions	308.15 K	318.15 K
x1 = 0.00977	–	758.593
x1 = 0.00998	768.618	–
x1 = 0.02023	–	761.593
x1 = 0.02137	771.87	–
x1 = 0.0304	–	764.483
x1 = 0.03278	775.071	–
x1 = 0.04029	–	767.262
x1 = 0.04058	777.238	–
x1 = 0.04893	–	769.671
x1 = 0.0505	779.979	–
x1 = 0.05932	–	772.54
x1 = 0.06681	–	774.593
x1 = 0.06827	784.813	–
x1 = 0.07039	785.413	–
x1 = 0.07541	786.728	–
x1 = 0.07969	–	778.086
x1 = 0.091	–	781.124
x1 = 0.09332	791.503	–
x1 = 0.1015	–	783.904
x1 = 0.1019	793.744	–
x1 = 0.1512	806.368	–
x1 = 0.1516	–	796.793
x1 = 0.195	817.055	807.486
x1 = 0.2495	829.827	–
x1 = 0.2503	–	820.48
x1 = 0.2981	840.655	–
x1 = 0.304	–	832.469
x1 = 0.4001	861.695	–
x1 = 0.4012	–	852.641
x1 = 0.5006	880.458	–
x1 = 0.5007	–	871.365
x1 = 0.6017	897.597	–
x1 = 0.6038	–	888.921
x1 = 0.7031	–	904.33
x1 = 0.7041	913.484	–
x1 = 0.8014	–	918.191
x1 = 0.8024	927.171	–
x1 = 0.9034	–	931.153
x1 = 0.9066	940.325	–
x1 = 0.9102	940.846	–
x1 = 0.9133	–	932.346
x1 = 0.9213	942.098	–
x1 = 0.9235	–	933.569
x1 = 0.9316	943.319	–
x1 = 0.935	–	934.916
x1 = 0.9417	944.49	–
x1 = 0.9434	–	935.911
x1 = 0.9524	–	936.96
x1 = 0.9528	945.766	–
x1 = 0.9632	946.944	–
x1 = 0.9635	–	938.217
x1 = 0.9702	947.731	–
x1 = 0.9723	–	939.208
x1 = 0.9814	948.974	940.219
x1 = 0.9929	–	941.484
x1 = 0.9931	950.261	–
x1 = 1	951.01	942.253

CC#N [acetonitrile] + COCCO
Conditions	speed of sound [m/s]
[1], x2 = 0	1279.6

[1], x2 = 0
Conditions	mass density [kg/m3]
308.15 K	765.735
318.15 K	755.763

Source: the NIST ThermoML archive (doi:10.1016/j.jct.2011.04.010)
